Key:
[1] = system: Wild-type (Oregon-R) Drosophila melanogaster; assay: Fly Study II, MTX lethality in wild-type flies; type: in vivo
Procedure: (§1) Embryos of UPase knockout (19519) Drosophila melanogaster were orally exposed to a dose range of MTX doses in food admix. Embryos of Wild-type (Oregon-R) were orally exposed to the same dose range of MTX in presence and absence of 0.04 mg TK-112690. Scoring was based on life or death 15 days after initiation of MTX exposure. […] Wild-type D. melanogaster are sensitive to lethal effects of 0.1 mg MTX.
(§2) The aim of this study was to evaluate the lethal effects of a range (0.001, 0.01, 0.05, 0.1, 0.2, 0.4 mg) of doses of orally fed MTX in wild-type (Ore-R) and UPase mutant Drosophila melanogaster. Embryos of UPase knockout (19519) Drosophila melanogaster were orally exposed to a dose range of MTX (0.001, 0.01, 0.05, 0.1, 0.2, 0.4 mg) in food admix. Embryos of Wild-type (Oregon-R) were orally exposed to the same dose range of MTX in presence and absence of 0.04 mg TK-112690. Scoring was based on life or death 15 days after initiation of MTX exposure.

[2] = system: UPase knockout (19519) Drosophila melanogaster; assay: Fly Study II, MTX lethality in UPase knockout flies; type: in vivo
Procedure: as §1, §2

[3] = system: AS283 human lymphoma xenografts; assay: Mouse Study V (xenograft with AS283 implants); type: in vivo, C.B.-17 SCID mice
Procedure: Six-week-old male SCID mice were implanted with fragments of AS283 human lymphoma tumors. The tumors were allowed to reach 75-198 mg in weight (75-198 mm^3 in size) before the start of treatment. The experiment consisted of two treatment groups and one vehicle-treated control group, with ten animals per group, for a total of 30 mice on the first day of treatment.
TK-112690 was administered by ip injection [twice every 2 days for 5 injections with six hour interval (q6h×2, q2d×5)] at a dosage of 30 mg/kg/injection. MTX was administered by ip injection q2d×5 at a dosage of 5.0 mg/kg/injection three hours after the TK-112690 injection. The control group was treated with both vehicles, which were administered on the corresponding compound schedules.
Six-week-old male C.B.-17 SCID mice were acclimated in the laboratories for seven days prior to experimentation. Thirty-to-forty mg fragments of AS283 human lymphoma tumor were implanted sc in mice near the right flank using a 12-gauge trocar needle and allowed to grow. Tumors were allowed to reach 75-198 mg in weight (75-198 mm^3 in size) before the start of treatment. A sufficient number of mice were implanted so that tumors in a weight range as narrow as possible were selected for the trial on the day of treatment initiation (day 8 after tumor implantation). Those animals selected with tumors in the proper size range were assigned to the various treatment groups so that the median tumor weights on the first day of treatment were as close to each other as possible (162 mg for all groups). The experiment consisted of two treatment groups and one vehicle-treated control group with ten animals per group for a total of 30 mice on the first day of treatment.
A 15 mg/mL solution of TK-112690 was prepared daily by dissolving the compound in 100% DMSO (by vortexing as needed) and then adding PBS for a 3 mg/mL dosing solution. The final composition of the vehicle was 20% DMSO/80% PBS. The 25 mg/mL stock solution of MTX for injection was diluted each day of injection with saline to a 0.75 mg/mL dosing solution. Both compounds were administered ip by exact body weight using an injection volume of 0.1 mL for every 10 g of body weight.
TK-112690 was administered by intraperitoneal (ip) injection [twice every 2 days for 5 injections with six hour interval (q6h×2, q2d×5)] at a dosage of 30 mg/kg/injection. MTX was administered by intraperitoneal (ip) injection q2d×5 at a dosage of 5.0 mg/kg/injection three hours after the TK-112690 injection. The control group was treated with both vehicles, which were administered on the corresponding compound schedules.
The sc tumors were measured and the animals were weighed thrice weekly starting the day of the first treatment. Tumor volume was determined by caliper measurements (mm) and using the formula for an ellipsoid sphere: L×W^2/2=mm^3, where L and W refer to the larger and smaller perpendicular dimensions collected at each measurement. This formula is also used to calculate tumor weight, assuming unit density (1 mm^3=1 mg).
The study was terminated twenty one days after tumor implantation. Any animal found moribund or any animal whose tumor reached 4,000 mg, ulcerated or was sloughed off was euthanized prior to study termination.

[4] = Mouse Study III (infection study, WBC counts); type: in vivo, C57BL/6 mice; conditions: Day 11
Procedure: C57BL/6 mice (n=10/dose group), treated i.p. 50 mg/kg MTX on Day 1, 2, 3, 4, 6 and 8 along with 60 mg/kg TK-112690 i.p. 3 hr±MTX followed by single daily doses TK-112690 on days not treated with MTX. On Day 11, the animals were sacrificed and hematology performed on the resulting blood. Group 1=saline control, Group 2=MTX control and Group 3=MTX+TK-112690.
For the study whose data are presented in FIG. 4, C57BL/6 mice (n=10/dose group) were treated i.p. with 50 mg/kg MTX on Day 1, 2, 3, 4, 6 and 8 along with 60 mg/kg TK-112690 i.p. 3 hr±MTX followed by single daily doses TK-112690 on days not treated with MTX. On Day 11, the animals were bled and hematology performed on the resulting blood samples. Following the hematology measurements, the animals were sacrificed.

[5] = MTX alone 5.0 mg/kg/injection ip q2d×5, day 21
[6] = TK-112690 30 mg/kg/injection combined with MTX 5.0 mg/kg/injection, day 21

| SMILES | MTX dose lethal to wild-type flies ([1]; oral in food admix, 15 days after initiation of MTX exposure) | sensitivity of UPase knockout flies to lethal effects of MTX ([2]; MTX 0.001-0.4 mg oral, 15 days) | median tumor weight value, % of the control on day 21 ([3]; MTX alone 5.0 mg/kg/injection ip q2d×5) | median tumor weight value smaller than the median at the start of treatment (162 mg) [3, 5] | median tumor weight value smaller than the median at the start of treatment (162 mg), % [3, 5] | systemic WBC level ([4]; 50 mg/kg MTX ip Day 1, 2, 3, 4, 6, 8, p<0.02 vs saline or MTX+TK-112690) | sensitivity of wild-type flies to lethal effects of MTX in the presence of TK-112690 ([1]; 0.04 mg TK-112690, MTX 0.001-0.4 mg oral, 15 days) | methotrexate dose from whose lethality TK-112690 protects ([1]; 0.04 mg TK-112690, wild-type flies, 15 days) | added protection from methotrexate toxicities by TK-112690 in UPase mutant flies ([2]; UPase mutant flies, dose range of methotrexate) | median tumor weight value smaller than the median at the start of treatment (162 mg) [3, 6] | median tumor weight value smaller than the median at the start of treatment (162 mg), % [3, 6] | median tumor weight value, % of the control on day 21 ([3]; TK-112690 30 mg/kg/injection ip (q6h×2, q2d×5) combined with MTX 5.0 mg/kg/injection) | tumor volumes, MTX+TK-112690 versus MTX ([3]; day 21, p=1.0) | protection from MTX-induced mucositis measured as prevention of WBC increase ([4]; 60 mg/kg ip 3 hr ± MTX 50 mg/kg) |
| --- | --- | --- | --- | --- | --- | --- | --- | --- | --- | --- | --- | --- | --- | --- |
| CN(Cc1cnc2nc(N)nc(N)c2n1)c1ccc(C(=O)N[C@@H](CCC(=O)O)C(=O)O)cc1 [MTX, N-[4-[[(2,4-diamino-6-pteridinyl)methyl]methylamino]benzoyl]-L-glutamic acid, reference compound] | 0.1 mg | resistant to lethal effects | 2.8% | 40.0 mg | 24.7% | increases systemic WBC | – | – | – | – | – | – | – | – |
| Cc1cn2c(nc1=O)O[C@H]1[C@H](O)[C@@H](CO)O[C@H]12 [TK-112690, 2,2′-anhydro-5-methyluridine] | – | – | – | – | – | – | resistant to the lethal effects | ≤ 0.4 mg | does not provide added protection | 9.0 mg | 5.6% | 3.5% | no statistical difference | protects from MTX-induced mucositis |
